Data: the NIST ThermoML archive (doi:10.1021/je900218z)
Where “and” joins values, the source holds several entries; their conditions need not be identical. Equal values may be shown once.

Assay: mn = molality of the nth substance listed, in mol/kg
Settings: 298.15 K, 101 kPa, Liquid

O=S(=O)([O-])[O-].[Na+].[Na+] [sodium sulfate] + O
Settings	mass density
m1 = 0.2	1021.93 kg/m3
m1 = 0.4999	1057.3 kg/m3 and 1057.32 kg/m3 and 1057.31 kg/m3
m1 = 0.6999	1079.92 kg/m3 and 1079.94 kg/m3 and 1079.93 kg/m3
m1 = 0.9868	1111.12 kg/m3
m1 = 0.9979	1112.28 kg/m3
m1 = 0.9999	1112.48 kg/m3
m1 = 1.196	1133.04 kg/m3
m1 = 1.2	1133.46 kg/m3 and 1133.45 kg/m3
